Experimental data reported in ChEMBL document CHEMBL1135149, “Syntheses of depsipeptide analogues of the insect neuropeptide proctolin” (2002).
Non-standard residues stand in square brackets, D forms with d. Residues, ends and D or L forms follow the SMILES beside them. *: point of attachment. Hpla = O=C(O)[C@@H](O)Cc1ccc(O)cc1; Hica(2S) = CC(C)C[C@H](O)C(=O)O; X1 = C[C@@H](O)[C@H](O*)C(=O)O

System: Locusta migratoria
Experiment: Myotropic effect was assessed in vitro, using an isometric muscle contraction bioassay employing isolated hindguts from the locust Locusta migratoria at 1 uM/L
Format: functional, Muscle tissue

Compound | Isometric contraction [%]
CC(C)C[C@H](NC(=O)[C@H](Cc1ccc(O)cc1)NC(=O)[C@@H](N)CCCN=C(N)N)C(=O)N1CCC[C@H]1C(=O)O[C@H](C(=O)O)[C@@H](C)O.O=C(O)C(F)(F)F.O=C(O)C(F)(F)F.O=C(O)C(F)(F)F (H-RYLP-X1) | 106
H-RYLPT-OH [PROCTOLIN] | 100
CC(C)C[C@H](NC(=O)[C@H](Cc1ccc(O)cc1)OC(=O)[C@@H](N)CCCN=C(N)N)C(=O)N1CCC[C@H]1C(=O)N[C@H](C(=O)O)[C@@H](C)O.O=C(O)C(F)(F)F.O=C(O)C(F)(F)F.O=C(O)C(F)(F)F (H-R[Hpla]LPT-OH) | 66
CC(C)C[C@H](OC(=O)[C@H](Cc1ccc(O)cc1)NC(=O)[C@@H](N)CCCN=C(N)N)C(=O)N1CCC[C@H]1C(=O)N[C@H](C(=O)O)[C@@H](C)O.O=C(O)C(F)(F)F.O=C(O)C(F)(F)F.O=C(O)C(F)(F)F (H-RY[Hica(2S)]PT-OH) | 30
CC(C)C[C@H](OC(=O)[C@H](Cc1ccc(O)cc1)NC(=O)[C@@H](N)CCCN=C(N)N)C(=O)N1CCC[C@H]1C(=O)O[C@H](C(=O)O)[C@@H](C)O.O=C(O)C(F)(F)F.O=C(O)C(F)(F)F.O=C(O)C(F)(F)F (H-RY[Hica(2S)]P-X1) | 27
